Reference: US20250339399A1, “SUPRAMOLECULAR SELF-ASSEMBLY SYSTEM” (Beijing Creatron Institute of Pharmaceutical Research Co., …, priority 2022, published 2025)

Experiment: Binary supramolecular self-assembly systems of polymer and target: guest concentration over incubation time (Comparative Example 2)
Type: physicochemical
Settings: binary system with 0.5% polymer 101; incubation 0.5 h
Description: Experiments were conducted according to the steps in Comparative Example 1, and quantitative analysis was carried out using the analytical method for each target to investigate the regulation ability […] stacking.
In the case of `CCC(C)n1ncn(-c2ccc(N3CCN(c4ccc(OCC5COC(Cn6cncn6)(c6ccc(Cl)cc6Cl)O5)cc4)CC3)cc2)c1=O` (stereo not shown) [Itraconazole, itraconazole], the “Concentration of the target in the solution measured after different incubation time” value (from here on “Concentration … after different incubation time”) was 47.9 µg/mL.

Same assay, conditions: binary system with 0.5% polymer 101; incubation 3 h
With `CCC(C)n1ncn(-c2ccc(N3CCN(c4ccc(OCC5COC(Cn6cncn6)(c6ccc(Cl)cc6Cl)O5)cc4)CC3)cc2)c1=O` (stereo not shown) [Itraconazole, itraconazole] the “Concentration … after different incubation time” value was 4.8 µg/mL.

Same assay, conditions: binary system with 0.5% polymer 101; incubation 6 h
With `CCC(C)n1ncn(-c2ccc(N3CCN(c4ccc(OCC5COC(Cn6cncn6)(c6ccc(Cl)cc6Cl)O5)cc4)CC3)cc2)c1=O` (stereo not shown) [Itraconazole, itraconazole] the “Concentration … after different incubation time” value was 3.0 µg/mL.

Same assay, conditions: binary system with 0.5% polymer 102; incubation 0.5 h
With `CCC(C)n1ncn(-c2ccc(N3CCN(c4ccc(OCC5COC(Cn6cncn6)(c6ccc(Cl)cc6Cl)O5)cc4)CC3)cc2)c1=O` (stereo not shown) [Itraconazole, itraconazole] the “Concentration … after different incubation time” value was 69.7 µg/mL.

Same assay, conditions: binary system with 0.5% polymer 102; incubation 3 h
In the case of `CCC(C)n1ncn(-c2ccc(N3CCN(c4ccc(OCC5COC(Cn6cncn6)(c6ccc(Cl)cc6Cl)O5)cc4)CC3)cc2)c1=O` (stereo not shown) [Itraconazole, itraconazole], the “Concentration … after different incubation time” value was 34.5 µg/mL.

Same assay, conditions: binary system with 0.5% polymer 102; incubation 6 h
For `CCC(C)n1ncn(-c2ccc(N3CCN(c4ccc(OCC5COC(Cn6cncn6)(c6ccc(Cl)cc6Cl)O5)cc4)CC3)cc2)c1=O` (stereo not shown) [Itraconazole, itraconazole], the “Concentration … after different incubation time” value was 24.7 µg/mL.

Same assay, conditions: binary system with 0.5% polymer 103; incubation 0.5 h
With `CCC(C)n1ncn(-c2ccc(N3CCN(c4ccc(OCC5COC(Cn6cncn6)(c6ccc(Cl)cc6Cl)O5)cc4)CC3)cc2)c1=O` (stereo not shown) [Itraconazole, itraconazole] the “Concentration … after different incubation time” value was 14.1 µg/mL.

Same assay, conditions: binary system with 0.5% polymer 103; incubation 3 h
In the case of `CCC(C)n1ncn(-c2ccc(N3CCN(c4ccc(OCC5COC(Cn6cncn6)(c6ccc(Cl)cc6Cl)O5)cc4)CC3)cc2)c1=O` (stereo not shown) [Itraconazole, itraconazole], the “Concentration … after different incubation time” value was 8.6 µg/mL.

Same assay, conditions: binary system with 0.5% polymer 103; incubation 6 h
For `CCC(C)n1ncn(-c2ccc(N3CCN(c4ccc(OCC5COC(Cn6cncn6)(c6ccc(Cl)cc6Cl)O5)cc4)CC3)cc2)c1=O` (stereo not shown) [Itraconazole, itraconazole], the “Concentration … after different incubation time” value was 1.9 µg/mL.

Same assay, conditions: binary system with 0.5% polymer 104; incubation 0.5 h
In the case of `CCC(C)n1ncn(-c2ccc(N3CCN(c4ccc(OCC5COC(Cn6cncn6)(c6ccc(Cl)cc6Cl)O5)cc4)CC3)cc2)c1=O` (stereo not shown) [Itraconazole, itraconazole], the “Concentration … after different incubation time” value was 31.5 µg/mL.

Same assay, conditions: binary system with 0.5% polymer 104; incubation 3 h
In the case of `CCC(C)n1ncn(-c2ccc(N3CCN(c4ccc(OCC5COC(Cn6cncn6)(c6ccc(Cl)cc6Cl)O5)cc4)CC3)cc2)c1=O` (stereo not shown) [Itraconazole, itraconazole], the “Concentration … after different incubation time” value was 7.1 µg/mL.

Same assay, conditions: binary system with 0.5% polymer 104; incubation 6 h
For `CCC(C)n1ncn(-c2ccc(N3CCN(c4ccc(OCC5COC(Cn6cncn6)(c6ccc(Cl)cc6Cl)O5)cc4)CC3)cc2)c1=O` (stereo not shown) [Itraconazole, itraconazole], the “Concentration … after different incubation time” value was 3.1 µg/mL.

Same assay, conditions: binary system with 0.5% polymer 106; incubation 0.5 h
For `CCC(C)n1ncn(-c2ccc(N3CCN(c4ccc(OCC5COC(Cn6cncn6)(c6ccc(Cl)cc6Cl)O5)cc4)CC3)cc2)c1=O` (stereo not shown) [Itraconazole, itraconazole], the “Concentration … after different incubation time” value was 43.3 µg/mL.

Same assay, conditions: binary system with 0.5% polymer 106; incubation 3 h
For `CCC(C)n1ncn(-c2ccc(N3CCN(c4ccc(OCC5COC(Cn6cncn6)(c6ccc(Cl)cc6Cl)O5)cc4)CC3)cc2)c1=O` (stereo not shown) [Itraconazole, itraconazole], the “Concentration … after different incubation time” value was 8.3 µg/mL.

Same assay, conditions: binary system with 0.5% polymer 106; incubation 6 h
In the case of `CCC(C)n1ncn(-c2ccc(N3CCN(c4ccc(OCC5COC(Cn6cncn6)(c6ccc(Cl)cc6Cl)O5)cc4)CC3)cc2)c1=O` (stereo not shown) [Itraconazole, itraconazole], the “Concentration … after different incubation time” value was 6.4 µg/mL.

Same assay, conditions: binary system with 0.5% polymer 107; incubation 0.5 h
For `CCC(C)n1ncn(-c2ccc(N3CCN(c4ccc(OCC5COC(Cn6cncn6)(c6ccc(Cl)cc6Cl)O5)cc4)CC3)cc2)c1=O` (stereo not shown) [Itraconazole, itraconazole], the “Concentration … after different incubation time” value was 13.5 µg/mL.

Same assay, conditions: binary system with 0.5% polymer 107; incubation 3 h
With `CCC(C)n1ncn(-c2ccc(N3CCN(c4ccc(OCC5COC(Cn6cncn6)(c6ccc(Cl)cc6Cl)O5)cc4)CC3)cc2)c1=O` (stereo not shown) [Itraconazole, itraconazole] the “Concentration … after different incubation time” value was 1.7 µg/mL.

Same assay, conditions: binary system with 0.5% polymer 107; incubation 6 h
With `CCC(C)n1ncn(-c2ccc(N3CCN(c4ccc(OCC5COC(Cn6cncn6)(c6ccc(Cl)cc6Cl)O5)cc4)CC3)cc2)c1=O` (stereo not shown) [Itraconazole, itraconazole] the “Concentration … after different incubation time” value was 1.2 µg/mL.

Experiment: not given
Settings: cited from earlier work
In the case of `CCC(C)n1ncn(-c2ccc(N3CCN(c4ccc(OCC5COC(Cn6cncn6)(c6ccc(Cl)cc6Cl)O5)cc4)CC3)cc2)c1=O` (stereo not shown) [Itraconazole, itraconazole], the “LogD7.4 or Log P” value is listed as 7.31.

Experiment: Guest molecule concentration after incubation in initial medium without polymer (Comparative Example 1)
Type: physicochemical
Settings: 0.5 h; 37° C.; 0.05% SDS in pH 6.8 phosphate buffer
Description: pH 2.0 hydrochloric acid, pH 4.5 acetate, and pH 6.5, pH 6.8, or pH 7.4 phosphate buffer solutions were prepared. The selection of each initial medium followed the principle that the solubility in the initial medium of the selected targets (or active ingredients) should low enough, but should meet the detection sensitivity and accuracy requirements of the corresponding analytical methods. Each buffer as initial media was placed in a 50 ml test tube with a stopper, shaken in a constant temperature air shaker at 37° C.±0.5° C., with an amplitude of 200 rpm, and incubated for 1 hour. […] Samples were taken at 0.5 h, 3 h and 6 h after incubation, centrifuged at 37° C., 13000 rpm for 5 minutes, and the supernatant was diluted at least 10 times with the mobile phase under the target analyte analytical method, filtered, the initial filtrate was discarded, and the continued filtrate was used as the test solution for injection analysis. The corresponding HPLC method under each target object item in Table 8 was used to determine the content of each target substance. When the solubility of the target in the initial medium is below the quantitative limit of the analytical method, a small amount of surfactant, such as sodium dodecyl sulfate (SDS), Tween20, or Tween80, can be added appropriately.
The above targets were incubated at 37° C.±0.5° C. for different time in an initial medium without any polymer. Each solid target formed by molecular stacking was removed by centrifugation, and the supernatant was analyzed using the HPLC method under each target item (see Table 8). The theoretical addition concentration of each target when its supramolecular self-assembly system was built was determined by its maximum dose in clinical use.
For `CCC(C)n1ncn(-c2ccc(N3CCN(c4ccc(OCC5COC(Cn6cncn6)(c6ccc(Cl)cc6Cl)O5)cc4)CC3)cc2)c1=O` (stereo not shown) [Itraconazole, itraconazole], the “Concentration of guest molecule measured after different incubated time” value (“Concentration … after different incubated time” below) was 10.7 µg/mL.

Same assay, conditions: 3 h; 37° C.; 0.05% SDS in pH 6.8 phosphate buffer
With `CCC(C)n1ncn(-c2ccc(N3CCN(c4ccc(OCC5COC(Cn6cncn6)(c6ccc(Cl)cc6Cl)O5)cc4)CC3)cc2)c1=O` (stereo not shown) [Itraconazole, itraconazole] the “Concentration … after different incubated time” value was 2.9 µg/mL.

Same assay, conditions: 6 h; 37° C.; 0.05% SDS in pH 6.8 phosphate buffer
In the case of `CCC(C)n1ncn(-c2ccc(N3CCN(c4ccc(OCC5COC(Cn6cncn6)(c6ccc(Cl)cc6Cl)O5)cc4)CC3)cc2)c1=O` (stereo not shown) [Itraconazole, itraconazole], the “Concentration … after different incubated time” value was 2.7 µg/mL.
